Data as given in US20100041089A1, “IMPROVED METHOD FOR DETECTING CHEMICAL […]” (priority 2006, published 2010).

System: yeast genes (expressed mRNA)
Experiment: DNA chip measurement of expressed mRNA of yeast genes after culture with a toxic chemical substance
Format: cell-based, Saccharomyces cerevisiae S288C
Method: Yeast (Saccharomyces cerevisiae S288C (a SUC2mal mel gap2 CUP1)) were cultured at 25° C. on YPD medium (yeast extract 1%, polypeptone 2%, glucose 2%). One of toxic chemical substances was added to the cell at logarithmic growth phase, and the cell was further cultured for two hours. Cell was cultured without any chemical substance in the same condition, and was used as a control. Concentrations of the chemical substances were defined to inhibit the growth of the yeast but not lead to death.
After the completion of cultivation, the culture was centrifuged to collect the cells. To the cells, sodium acetate buffer (50 mM sodium acetate, 10 mM EDTA, 1% SDS) was added, and the mixture was shaken at 65° C. for five minutes, followed by returning to room temperature, and obtaining the supernatant, which procedure was repeated two times. To the supernatant, ½ amount of a solution of phenol/chloroform (1:1) was added, and the mixture was centrifuged to give a supernatant, an equal amount of chloroform was added, and the mixture was centrifuged to give a supernatant. To the supernatant, an equal amount of isopropanol containing 0.3 M sodium acetate was added, and the mixture was allowed to stand at room temperature for 30 minutes, after which the mixture was centrifuged to give sediment of the whole RNAs. Seventy % ethanol was added to the sediment, and the mixture was again centrifuged to give sediment, which was then dried and dissolved in water. mRNA was isolated from the whole RNAs as followings. In view of the fact that a poly A chain is attached to the 3′ terminus of mRNA, a polynucleotide having a poly T structure which was immobilized on the surface of latex beads was used to trap the mRNA, and then the mRNA was washed and eluted with spine column (Oligotex-dT30<Super>mRNA Purification Kit, Takara). Reverse transcription of the mRNA was conducted with a reverse transcriptase (Super Script II Reverse Transcriptase; catalogue No. 18064-014, GibcoBRL) using fluorescence-labeled nucleotides to give cDNAs that were introduced with Cy3-dUTP or Cy5-dUTP during the reverse transcription.
The labeled cDNAs were dissolved in TE buffer (10 mM Tris-HCl/1 mM EDTA, pH 8.0), and the solution was dropped on the DNA chip containing the whole genes of yeast (DNA Chip Research Inc. Japan) so that the cDNAs were hybridized on the DNA chip at 65° C. for over 12 hours. The fluoresces intensity of the DNA chip was read with a scanner, and the ratio relative to the fluorescence intensity resulting from the absence of chemical substance was estimated as the following, which is shown in Tables 1 to 9.
In the Tables, “Intensity” indicated in the rightmost column is a value of the level of expressed mRNA of each gene in control cells as divided by the average level of the expressions of the whole genes. A gene of which mRNA level is lower in control, and is higher in cases of addition of chemical substance, is especially useful in the detection of toxic substances.
Here, when a ratio of an amount of mRNA expressed in the presence of the chemical substance to an amount of mRNA expressed in the absence of the chemical substance is two or more, then it is considered significant.

SMILES: Oc1cc(Cl)c(Cl)cc1Cl [(6), 2,4,5-Trichlorophenol]
- The level of expressed mRNA in the presence of chemical substance/The level of expressed mRNA in the absence of chemical substance (yeast gene YJR054W, cultured two hours with substance): 0.7
- The level of expressed mRNA in the presence of chemical substance/The level of expressed mRNA in the absence of chemical substance (yeast gene YKL039W): 4.9
- The level of expressed mRNA in the presence of chemical substance/The level of expressed mRNA in the absence of chemical substance (yeast gene YKL071W, cultured two hours with substance): 18.6
- The level of expressed mRNA in the presence of chemical substance/The level of expressed mRNA in the absence of chemical substance (yeast gene YKL086W, cultured two hours with substance): 1.0
- The level of expressed mRNA in the presence of chemical substance/The level of expressed mRNA in the absence of chemical substance (yeast gene YKL151C, cultured two hours with substance): 2.0
- The level of expressed mRNA in the presence of chemical substance/The level of expressed mRNA in the absence of chemical substance (yeast gene YKL153W, cultured two hours with substance): 2.9
- The level of expressed mRNA in the presence of chemical substance/The level of expressed mRNA in the absence of chemical substance (yeast gene YKL195W, cultured two hours with substance): 2.5
- The level of expressed mRNA in the presence of chemical substance/The level of expressed mRNA in the absence of chemical substance (yeast gene YKR076W): 4.7
- The level of expressed mRNA in the presence of chemical substance/The level of expressed mRNA in the absence of chemical substance (yeast gene YKR091W, cultured two hours with substance): 1.0
- The level of expressed mRNA in the presence of chemical substance/The level of expressed mRNA in the absence of chemical substance (yeast gene YLR054C, cultured two hours with substance): 1.2
- The level of expressed mRNA in the presence of chemical substance/The level of expressed mRNA in the absence of chemical substance (yeast gene YLR149C, cultured two hours with substance): 1.4
- The level of expressed mRNA in the presence of chemical substance/The level of expressed mRNA in the absence of chemical substance (yeast gene YLR152C, cultured two hours with substance): 2.1
- The level of expressed mRNA in the presence of chemical substance/The level of expressed mRNA in the absence of chemical substance (yeast gene YLR194C, cultured two hours with substance): 0.9
- The level of expressed mRNA in the presence of chemical substance/The level of expressed mRNA in the absence of chemical substance (yeast gene YLR280C, cultured two hours with substance): 0.9
- The level of expressed mRNA in the presence of chemical substance/The level of expressed mRNA in the absence of chemical substance (yeast gene YLR324W, cultured two hours with substance): 1.2
- The level of expressed mRNA in the presence of chemical substance/The level of expressed mRNA in the absence of chemical substance (yeast gene YLR350W, cultured two hours with substance): 1.6
- The level of expressed mRNA in the presence of chemical substance/The level of expressed mRNA in the absence of chemical substance (yeast gene YLR387C, cultured two hours with substance): 1.9
- The level of expressed mRNA in the presence of chemical substance/The level of expressed mRNA in the absence of chemical substance (yeast gene YLR460C, cultured two hours with substance): 0.6
- The level of expressed mRNA in the presence of chemical substance/The level of expressed mRNA in the absence of chemical substance (yeast gene YML117W, cultured two hours with substance): 1.0
- The level of expressed mRNA in the presence of chemical substance/The level of expressed mRNA in the absence of chemical substance (yeast gene YML128C, cultured two hours with substance): 5.1
- The level of expressed mRNA in the presence of chemical substance/The level of expressed mRNA in the absence of chemical substance (yeast gene YMR009W, cultured two hours with substance): 1.2
- The level of expressed mRNA in the presence of chemical substance/The level of expressed mRNA in the absence of chemical substance (yeast gene YMR067C, cultured two hours with substance): 1.4
- The level of expressed mRNA in the presence of chemical substance/The level of expressed mRNA in the absence of chemical substance (yeast gene YMR090W, cultured two hours with substance): 3.8
- The level of expressed mRNA in the presence of chemical substance/The level of expressed mRNA in the absence of chemical substance (yeast gene YMR095C, cultured two hours with substance): 0.7
- The level of expressed mRNA in the presence of chemical substance/The level of expressed mRNA in the absence of chemical substance (yeast gene YMR097C, cultured two hours with substance): 1.2
- The level of expressed mRNA in the presence of chemical substance/The level of expressed mRNA in the absence of chemical substance (yeast gene YMR102C, cultured two hours with substance): 6.3
- The level of expressed mRNA in the presence of chemical substance/The level of expressed mRNA in the absence of chemical substance (yeast gene YMR107W, cultured two hours with substance): 1.0
- The level of expressed mRNA in the presence of chemical substance/The level of expressed mRNA in the absence of chemical substance (yeast gene YMR140W, cultured two hours with substance): 17.1
- The level of expressed mRNA in the presence of chemical substance/The level of expressed mRNA in the absence of chemical substance (yeast gene YMR173W (stress protein genes)): 5.0
- The level of expressed mRNA in the presence of chemical substance/The level of expressed mRNA in the absence of chemical substance (yeast gene YMR180C, cultured two hours with substance): 2.4
- The level of expressed mRNA in the presence of chemical substance/The level of expressed mRNA in the absence of chemical substance (yeast gene YMR184W, cultured two hours with substance): 0.9
- The level of expressed mRNA in the presence of chemical substance/The level of expressed mRNA in the absence of chemical substance (yeast gene YMR191W, cultured two hours with substance): 1.0
- The level of expressed mRNA in the presence of chemical substance/The level of expressed mRNA in the absence of chemical substance (yeast gene YMR295C, cultured two hours with substance): 1.9
- The level of expressed mRNA in the presence of chemical substance/The level of expressed mRNA in the absence of chemical substance (yeast gene YMR316W, cultured two hours with substance): 0.7
- The level of expressed mRNA in the presence of chemical substance/The level of expressed mRNA in the absence of chemical substance (yeast gene YNL044W, cultured two hours with substance): 0.9
- The level of expressed mRNA in the presence of chemical substance/The level of expressed mRNA in the absence of chemical substance (yeast gene YNL074C, cultured two hours with substance): 1.7
